Test: Effect of TB4 on bodyweight of db/db mice
Assay type: in vivo, mouse
Conditions: for Weight: db/db mice, mean ± SE
Method: All experimental procedures were carried out in accordance with NIH Guide for the Care and Use of Laboratory Animals and approved by the institutional Animal Care and Use Committee of Henry Ford Hospital. Male BKS.Cg-m+/+Lepr^db/J(db/db) mice (Jackson Laboratories, Bar Harbor, Me.) aged 20 weeks were used. Age-matched heterozygotes mice (db/m), a non-penetrant genotype (Jackson Laboratories), were used as the control animals.
db/db mice at age 20 weeks were treated with Tβ4 at a dose of 6 mg/kg or 24 mg/kg (RegeneRx, Inc, intraperitoneal injection, i.p.), every 3 days for 4 weeks (n=10/group). db/db mice (n=10/group) at the same age treated with same volume of saline were used as a control group. Age-matched db/m mice treated with Tβ4 (6 mg/kg i.p. every 3 days, n=10/group) or saline (n=10/group) were used as additional control groups. All mice were sacrificed 8 weeks after the initial treatment. Doses of Tβ4 were selected based on published studies^13.

Weight (TB4 6 mg/kg i.p. every 3 days for 4 weeks, 0 w (before the treatment)): 59.5 ± 0.9 g | Weight (TB4 6 mg/kg, 2 w): 57.1 ± 1.1 g | Weight (TB4 6 mg/kg, 4 w): 56.2 ± 1.2 g | Weight (TB4 6 mg/kg, 6 w): 53.7 ± 1.5 g | Weight (TB4 6 mg/kg, 8 w): 53.0 ± 1.7 g | Weight (TB4 24 mg/kg i.p. every 3 days for 4 weeks, 0 w (before the treatment)): 58.9 ± 1.1 g | Weight (TB4 24 mg/kg, 2 w): 58.1 ± 1.2 g | Weight (TB4 24 mg/kg, 4 w): 55.7 ± 1.5 g | Weight (TB4 24 mg/kg, 6 w): 56.0 ± 1.4 g | Weight (TB4 24 mg/kg, 8 w): 54.8 ± 1.6 g
SMILES: CC[C@H](C)[C@H](NC(=O)[C@H](CCC(=O)O)NC(=O)[C@H](C)NC(=O)[C@H](CCSC)NC(=O)[C@H](CC(=O)O)NC(=O)[C@@H]1CCCN1C(=O)[C@H](CCCCN)NC(=O)[C@H](CC(=O)O)NC(=O)[C@H](CO)NC(C)=O)C(=O)N[C@@H](CCC(=O)O)C(=O)N[C@@H](CCCCN)C(=O)N[C@@H](Cc1ccccc1)C(=O)N[C@@H](CC(=O)O)C(=O)N[C@@H](CCCCN)C(=O)N[C@@H](CO)C(=O)N[C@@H](CCCCN)C(=O)N[C@@H](CC(C)C)C(=O)N[C@@H](CCCCN)C(=O)N[C@@H](CCCCN)C(=O)N[C@H](C(=O)N[C@@H](CCC(=O)O)C(=O)N[C@H](C(=O)N[C@@H](CCC(N)=O)C(=O)N[C@@H](CCC(=O)O)C(=O)N[C@@H](CCCCN)C(=O)N[C@@H](CC(N)=O)C(=O)N1CCC[C@H]1C(=O)N[C@@H](CC(C)C)C(=O)N1CCC[C@H]1C(=O)N[C@@H](CO)C(=O)N[C@@H](CCCCN)C(=O)N[C@@H](CCC(=O)O)C(=O)N[C@H](C(=O)N[C@H](C(=O)N[C@@H](CCC(=O)O)C(=O)N[C@@H](CCC(N)=O)C(=O)N[C@@H](CCC(=O)O)C(=O)N[C@@H](CCCCN)C(=O)N[C@@H](CCC(N)=O)C(=O)N[C@@H](C)C(=O)NCC(=O)N[C@@H](CCC(=O)O)C(=O)N[C@@H](CO)C(=O)O)[C@@H](C)CC)[C@@H](C)O)[C@@H](C)O)[C@@H](C)O [Tβ4, thymosin beta 4]
animal body weight (db/db mouse treated with Tβ4 (Table 1)): did not significantly alter

From patent publication US9775883B2, “Methods, systems, and compositions for promoting recovery of peripheral neuropathy” (HENRY FORD HEALTH SYSTEM, priority 2011, dated 2017)
